According to the supplement of paper PMC11451515:

System: SEM cells
Assay: cell viability relative to DMSO control; higher = less cytotoxic
Conditions: 48 h
Method in brief: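 Viability was expressed as a per-plate percentage of DMSO wells, with cell-free wells as background. Leukemia cells (NOMO1 or SEM at 500 cells/well, P12-Ichikawa at 1000 cells/well) were adapted for at least four passages in each medium and seeded in 1536-well plates (5 μl). Library compounds in DMSO were pin-dosed over an 11-point threefold series from 47 μM to 0.79 nM, and CellTiter-Glo One luminescence was read after 48 h at 37°C.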

[1] = HPLM + 10% dialyzed FBS, 0.000781 µM
[2] = HPLM + 10% dialyzed FBS, 0.00234 µM
[3] = HPLM + 10% dialyzed FBS, 0.00702 µM
[4] = HPLM + 10% dialyzed FBS, 0.0211 µM
[5] = HPLM + 10% dialyzed FBS, 0.0632 µM
[6] = HPLM + 10% dialyzed FBS, 0.19 µM
[7] = HPLM + 10% dialyzed FBS, 0.569 µM
[8] = HPLM + 10% dialyzed FBS, 1.71 µM
[9] = HPLM + 10% dialyzed FBS, 5.12 µM
[10] = HPLM + 10% dialyzed FBS, 15.4 µM
[11] = HPLM + 10% dialyzed FBS, 46.1 µM
[12] = RPMI 5 mM glucose + 10% FBS, 0.000781 µM
[13] = RPMI 5 mM glucose + 10% FBS, 0.00234 µM
[14] = RPMI 5 mM glucose + 10% FBS, 0.00702 µM
[15] = RPMI 5 mM glucose + 10% FBS, 0.0211 µM
[16] = RPMI 5 mM glucose + 10% FBS, 0.0632 µM
[17] = RPMI 5 mM glucose + 10% FBS, 0.19 µM
[18] = RPMI 5 mM glucose + 10% FBS, 0.569 µM
[19] = RPMI 5 mM glucose + 10% FBS, 1.71 µM
[20] = RPMI 5 mM glucose + 10% FBS, 5.12 µM
[21] = RPMI 5 mM glucose + 10% FBS, 15.4 µM
[22] = RPMI 5 mM glucose + 10% FBS, 46.1 µM
[23] = RPMI 5 mM glucose + 10% dialyzed FBS, 0.000781 µM
[24] = RPMI 5 mM glucose + 10% dialyzed FBS, 0.00234 µM
[25] = RPMI 5 mM glucose + 10% dialyzed FBS, 0.00702 µM
[26] = RPMI 5 mM glucose + 10% dialyzed FBS, 0.0211 µM
[27] = RPMI 5 mM glucose + 10% dialyzed FBS, 0.0632 µM
[28] = RPMI 5 mM glucose + 10% dialyzed FBS, 0.19 µM
[29] = RPMI 5 mM glucose + 10% dialyzed FBS, 0.569 µM
[30] = RPMI 5 mM glucose + 10% dialyzed FBS, 1.71 µM
[31] = RPMI 5 mM glucose + 10% dialyzed FBS, 5.12 µM
[32] = RPMI 5 mM glucose + 10% dialyzed FBS, 15.4 µM
[33] = RPMI 5 mM glucose + 10% dialyzed FBS, 46.1 µM

Structure (SMILES)	cell viability [1] [%]	cell viability [2] [%]	cell viability [3] [%]	cell viability [4] [%]	cell viability [5] [%]	cell viability [6] [%]	cell viability [7] [%]	cell viability [8] [%]	cell viability [9] [%]	cell viability [10] [%]	cell viability [11] [%]	cell viability [12] [%]	cell viability [13] [%]	cell viability [14] [%]	cell viability [15] [%]	cell viability [16] [%]	cell viability [17] [%]	cell viability [18] [%]	cell viability [19] [%]	cell viability [20] [%]	cell viability [21] [%]	cell viability [22] [%]	cell viability [23] [%]	cell viability [24] [%]	cell viability [25] [%]	cell viability [26] [%]	cell viability [27] [%]	cell viability [28] [%]	cell viability [29] [%]	cell viability [30] [%]	cell viability [31] [%]	cell viability [32] [%]	cell viability [33] [%]
CO[C@@H]1[C@@H](O)[C@H](O)[C@@H](n2c3c(Cl)cccc3c3c4c(c5c6cccc(Cl)c6[nH]c5c32)C(=O)NC4=O)O[C@H]1CO	99.7	90.8	105	112	96.9	81.2	54.5	13.8	9.51	5.16	5.04	137	118	113	112	108	70.1	28.1	11.5	6.56	4.38	4.8	99.2	113	95.1	100	92.4	82.9	43.1	11	7.94	4.29	3.62
Nc1nc(NCCNc2ncc(-n3ccnc3)c(-c3ccc(Cl)cc3Cl)n2)ccc1[N+](=O)[O-]	120	134	112	135	123	132	132	99.6	104	121	107												135	124	119	129	138	123	128	116	93.4	116	103
Cc1c(C(=O)c2cccc3ccccc23)c2cccc3c2n1[C@H](CN1CCOCC1)CO3	99.3	78.2	85.2	89.5	89.7	28.8	97.9	86.7	84	78.1	4.91	93.6	74.4	71.3	94.6	88.6	47.8	93.1	80.4	95.6	84.9	4.48	104	80.4	82	105	98	65.1	92.3	93.1	91.7	76.5	5.76
CC[C@H]1CN2CCc3cc(OC)c(OC)cc3[C@@H]2C[C@@H]1C[C@H]1NCCc2cc(OC)c(OC)cc21	40.6	88.1	71.5	73.9	89.7	38.6	11.8	10.1	7.04	7.04	6.06	46.7	94.3	67.6	79.9	90.9	61	14.7	11	8.47	9.05	7.9	35.8	99.2	74.9	96	113	67.8	22.2	13	9.62	9.49	8.97
OCCN(CCO)c1nc(N2CCCCC2)c2nc(N(CCO)CCO)nc(N3CCCCC3)c2n1	108	111	109	109	118	119	117	114	99.3	89.9	82.4	120	111	118	120	127	124	111	104	111	103	72.4	128	120	113	104	121	102	143	131	116	106	67.8
CC(C)Cn1cnc2c(N)nc3ccccc3c21	98.8	107	106	105	110	110	104	93.5	102	91.8	77.1	104	124	103	115	104	111	104	94.1	111	105	72.1	105	118	117	116	108	105	120	113	93.8	90.6	92
C[N+]1(C)[C@@H]2CC(OC(=O)C(O)(c3cccs3)c3cccs3)C[C@H]1[C@@H]1O[C@@H]12 (stereo partly drawn)	94.8	95.5	107	102	113	103	103	114	106	113	108	85.4	104	92.6	83	110	96.3	99.3	103	99.3	114	92.1	90.9	98	105	113	119	119	111	139	108	121	101
CN1CCC(CC1)=C2C3=C(C=CC=C3)\C=C/C4=C2C=CC=C4	102	109	120	121	125	126	123	112	131	105	103	118	121	126	115	125	135	139	138	130	113	101	101	109	117	117	133	134	130	104	119	112	86.7
Oc1ccc(-c2ccc(-c3cc(Nc4cccc(CNC5CC5)c4)[nH]n3)cc2)c(O)c1	82.4	100	93.7	93.7	70.7	103	91.1	46.7	25.7	9.24	6.68	97.8	106	95	101	72.6	89.7	110	94.5	45.7	27.4	4.97	89	96.9	100	87.9	84.1	99.6	100	84.8	60.2	22.8	9.47
CCOCC(O)COc1ccc(NC(=O)CC[S+](C)C)cc1 (stereo not drawn)	88.2	77.9	93.7	90.5	94.2	93.5	106	91.9	109	107	84.8	77.9	92.1	85.9	80.9	85.2	103	95.3	76.7	106	104	72.2	76.2	88.3	82.6	73.5	91.2	96.8	95.9	102	107	112	72.1
CCOC(=O)[C@H]1O[C@@H]1C(=O)N[C@@H](CC(C)C)C(=O)NCCC(C)C	116	119	109	125	120	132	69.4	114	118	118	109	111	99.4	102	96.2	110	88.4	91.1	124	107	104	94.6											
CC(C)(O)C(=O)Nc1ccc([N+](=O)[O-])c(C(F)(F)F)c1	98.6	107	115	108	116	113	124	123	117	123	103	92.2	97	91.9	91.3	101	97.6	103	114	104	123	82.8	112	114	112	120	112	118	135	123	131	128	126
CCOC(=O)N[C@@H]1CC[C@@H]2[C@@H](C1)C[C@H]1C(=O)O[C@H](C)[C@H]1[C@H]2/C=C/c1ccc(-c2cccc(F)c2)cn1	86.6	87.5	102	111	105	104	111	99.5	112	104	75.7	95.9	81.8	98.5	107	111	107	106	103	103	100	23.3	108	87.3	110	112	117	115	108	119	112	112	37.1
CCc1cc(-c2n[nH]c(C)c2-c2ccc3c(c2)OCCO3)c(O)cc1O	98	123	137	117	128	124	126	111	111	32.9	36.2	106	123	115	127	134	140	120	115	102	31.4	25.2											
CCOC(=O)[C@@H](N)CCC(=O)N[C@@H](CSCc1ccccc1)C(=O)N[C@@H](C(=O)OCC)c1ccccc1	84.5	105	99.8	103	104	111	109	116	119	97.1	102																						
O=[S+]([O-])(NCCNC/C=C/c1ccc(Br)cc1)c1cccc2cnccc12	97.5	94.8	97.5	42.4	101	89.5	91.1	82.3	68.7	43.1	48.2	115	119	115	48.9	114	131	105	103	62.5	58.4	43.7	95.5	96.6	93.8	45.3	91.6	87.7	83.8	74.5	56.4	41.6	34.9
